Test systems include SF-295; TK-10; EKVX; CAKI-1; MOLT-4; HCC 2998; U-251; UACC-62; A549; NCI/ADR-RES; NCI-H522; OVCAR-8; OVCAR-4; NCI-H226; SR; NCI-H23; HCT-15; ACHN; Hs-578T; MDA-N.
What all share (experiment): NCI anticancer screen, dose series, 48 h

Structures are written as SMILES.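 All cell lines were grown in 96-well plates and treated with compound for 48 hours. The concentration for 50% growth inhibition is given as GI50.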 The source made the active and inactive calls. Cut-off read from the data, not from the text of the source: active = GI50 up to about 1.1 µM and inactive = higher.

With `c1ccc(C2C(=P(c3ccccc3)(c3ccccc3)c3ccccc3)P=PC2[P+](c2ccccc2)(c2ccccc2)c2ccccc2)cc1.c1ccc([B-](c2ccccc2)(c2ccccc2)c2ccccc2)cc1` (configuration not stated), the GI50 with SF-295 is 0.492 µM (active); in the experiment on TK-10, 0.762 µM (active); in the experiment on EKVX, 4.79 µM (inactive); in the experiment with CAKI-1 it was 3.66 µM (inactive); with MOLT-4, 1.63 µM (inactive); in the experiment with HCC 2998 it was 0.593 µM (active). The GI50 in the experiment with U-251 is 0.176 µM (active); with UACC-62, 2.44 µM (inactive); in the experiment with A549 it was 0.422 µM (active); with NCI/ADR-RES, 3.48 µM (inactive); in the experiment with NCI-H522 it was 0.424 µM (active); with OVCAR-8 it was 0.252 µM (active). The GI50 in the experiment with OVCAR-4 is 0.652 µM (active); with NCI-H226, 1.11 µM (active); in the experiment on SR it was 0.966 µM (active); in the experiment on NCI-H23, 0.351 µM (active); in the experiment with HCT-15, 28.1 µM; in the experiment on ACHN, 0.701 µM (active). Moreover, the GI50 with Hs-578T was 0.679 µM (active); in the experiment with MDA-N, 0.139 µM (active).
Take `NCCCNC1(c2cc3ccccc3s2)CCCCC1`: the GI50 in the experiment on SF-295 was 9.48 µM (inactive); in the experiment on TK-10, 3.75 µM (inactive); in the experiment with EKVX, 8.65 µM (inactive); in the experiment with CAKI-1, 8.43 µM (inactive); in the experiment on MOLT-4 it was 3.29 µM (inactive); with HCC 2998 it was 1.55 µM (inactive). Besides, the GI50 in the experiment with U-251 is 2.93 µM (inactive); in the experiment with UACC-62 it was 1.92 µM (inactive); with A549, 7.1 µM (inactive); in the experiment with NCI/ADR-RES, 13.5 µM (inactive); with NCI-H522 it was 3.21 µM (inactive); in the experiment with OVCAR-8, 9.62 µM (inactive). Moreover, the GI50 in the experiment with OVCAR-4 was 11.1 µM (inactive); in the experiment with NCI-H226, 17.1 µM (inactive); in the experiment with SR, 1.77 µM (inactive); with NCI-H23, 15.7 µM (inactive); with HCT-15, 4.49 µM; in the experiment with ACHN, 11.9 µM (inactive). Moreover, the GI50 was 11.9 µM (inactive) in the experiment on Hs-578T and 1.78 µM (inactive) in the experiment on MDA-N.
For `CCOC(=O)C1(C(=O)OCC)[C@H](c2ccccc2)C2=NO[C@@H]3CCC[C@H]1[C@H]23`, the GI50 in the experiment on SF-295 was 33.4 µM (inactive); in the experiment with TK-10, 63.2 µM (inactive); with EKVX it was 27.9 µM (inactive); in the experiment with CAKI-1 it was 48.3 µM (inactive); with MOLT-4 it was 15.4 µM (inactive); with HCC 2998, 22.1 µM (inactive). Further, the GI50 in the experiment on U-251 is 49.9 µM (inactive); in the experiment on UACC-62, 15.2 µM (inactive); in the experiment on A549, 55.6 µM (inactive); with NCI/ADR-RES it was 39.4 µM (inactive); in the experiment on NCI-H522, 42.9 µM (inactive); in the experiment on OVCAR-8 it was 75.3 µM (inactive). In addition, the GI50 is 37.9 µM (inactive) with OVCAR-4; 32.9 µM (inactive) in the experiment on NCI-H226; 30.8 µM (inactive) with SR; 57.1 µM (inactive) in the experiment on NCI-H23; 43.6 µM in the experiment on HCT-15; 84.3 µM (inactive) in the experiment with ACHN. Besides, the GI50 in the experiment on Hs-578T is > 100 µM (inactive); in the experiment with MDA-N, 31.2 µM (inactive).
In the case of `CS(=O)(=O)c1ccc(/N=C/C=C/Nc2ccc(S(C)(=O)=O)cc2)cc1`, the GI50 in the experiment with SF-295, in the experiment on TK-10, in the experiment on EKVX, with CAKI-1, with MOLT-4 and with HCC 2998 was > 100 µM (inactive) each time. Further, the GI50 with U-251, with UACC-62, in the experiment with A549, with NCI/ADR-RES, with NCI-H522 and with OVCAR-8 was > 100 µM (inactive) throughout. The GI50 with OVCAR-4 is > 100 µM (inactive); in the experiment with NCI-H226 it was > 100 µM (inactive); with SR it was > 100 µM (inactive); with NCI-H23, > 100 µM (inactive); with HCT-15, more than 100 µM; in the experiment on ACHN, > 100 µM (inactive). Also, the GI50 in the experiment on Hs-578T and with MDA-N was > 100 µM (inactive) in each case.
In the case of `COc1ccc2nc3cc(Cl)ccc3c(NCCCNCc3cc(OC)c(OC)c(OC)c3)c2c1`, the GI50 in the experiment with SF-295 was 1.51 µM (inactive); in the experiment with TK-10 it was 1.73 µM (inactive); with EKVX, 1.47 µM (inactive); in the experiment with CAKI-1, 1.71 µM (inactive); with MOLT-4, 0.515 µM (active); in the experiment with HCC 2998, 1.75 µM (inactive). The GI50 in the experiment with U-251 is 1.76 µM (inactive); in the experiment with UACC-62, 1.91 µM (inactive); in the experiment on A549 it was 1.83 µM (inactive); in the experiment with NCI/ADR-RES, 2.08 µM (inactive); with NCI-H522, 1.5 µM (inactive); with OVCAR-8 it was 1.77 µM (inactive). Also, the GI50 in the experiment on OVCAR-4 was 1.78 µM (inactive); with NCI-H226, 1.67 µM (inactive); in the experiment on SR it was 1.2 µM (inactive); in the experiment on NCI-H23 it was 1.71 µM (inactive); with HCT-15, 1.54 µM; with ACHN it was 1.62 µM (inactive). Besides, the GI50 in the experiment with Hs-578T is 2.95 µM (inactive); in the experiment on MDA-N, 1.82 µM (inactive).
In the case of `O=C1c2ccccc2C2=Cc3ccccc3C(O)N12` (configuration not stated), the GI50 in the experiment on SF-295 was > 100 µM (inactive); in the experiment on TK-10, > 100 µM (inactive); with EKVX, > 100 µM (inactive); in the experiment with CAKI-1, 22.7 µM (inactive); in the experiment on MOLT-4 it was 34 µM (inactive); in the experiment on HCC 2998, > 100 µM (inactive). Besides, the GI50 was > 100 µM (inactive) with U-251; 24.9 µM (inactive) in the experiment with UACC-62; > 100 µM (inactive) with A549; > 100 µM (inactive) in the experiment with NCI/ADR-RES; 21.7 µM (inactive) with NCI-H522; > 100 µM (inactive) with OVCAR-8. The GI50 is > 100 µM (inactive) in the experiment with OVCAR-4; > 100 µM (inactive) in the experiment with NCI-H226; 25.8 µM (inactive) with SR; > 100 µM (inactive) with NCI-H23; more than 100 µM in the experiment on HCT-15; > 100 µM (inactive) with ACHN. Moreover, the results for the GI50 in the experiment on Hs-578T and in the experiment on MDA-N were 68.4 µM (inactive) and > 100 µM (inactive), respectively.
Regarding `CC(=O)OC[C@]1(C(=O)C(O)c2ccoc2)[C@H](C)CC[C@@]23COC(=O)C2=CCC[C@@H]31` (some centres not stated), the GI50 with SF-295, in the experiment with TK-10, in the experiment on EKVX, with CAKI-1, in the experiment with MOLT-4 and in the experiment on HCC 2998 was > 10 µM (inactive) in each case. Moreover, the GI50 in the experiment on U-251, in the experiment with UACC-62, with A549, in the experiment with NCI/ADR-RES, with NCI-H522 and in the experiment on OVCAR-8 was > 10 µM (inactive) throughout. Further, the GI50 in the experiment on OVCAR-4 is > 10 µM (inactive); with NCI-H226 it was > 10 µM (inactive); in the experiment with SR, > 10 µM (inactive); in the experiment with NCI-H23, > 10 µM (inactive); in the experiment on HCT-15, more than 10 µM; with ACHN it was > 10 µM (inactive). Further, the GI50 with Hs-578T and in the experiment with MDA-N was > 10 µM (inactive) each time.
As to `COC(=O)c1c(O)ccc2[nH]c3c(O)c4ccccc4cc3c12`, the GI50 is 18.9 µM (inactive) in the experiment with SF-295; 34.2 µM (inactive) in the experiment with TK-10; 16.8 µM (inactive) with EKVX; 18.5 µM (inactive) in the experiment with CAKI-1; 37.2 µM (inactive) with MOLT-4; 13.9 µM (inactive) in the experiment with HCC 2998. For the same compound, the GI50 is 36.5 µM (inactive) with U-251; 61.4 µM (inactive) with UACC-62; 32.2 µM (inactive) in the experiment on A549; 29.9 µM (inactive) in the experiment with NCI/ADR-RES; 32 µM (inactive) in the experiment with NCI-H522; 20.2 µM (inactive) in the experiment on OVCAR-8. Further, the GI50 in the experiment on OVCAR-4 is 25.5 µM (inactive); in the experiment on NCI-H226, 65.8 µM (inactive); in the experiment on SR it was 43.5 µM (inactive); in the experiment on NCI-H23, 23 µM (inactive); with HCT-15, 20.5 µM; in the experiment on ACHN, 27.9 µM (inactive). For the same compound, the GI50 in the experiment on Hs-578T was 23.7 µM (inactive); with MDA-N it was 28.4 µM (inactive).
On to `COC(=O)C12CCC(C(F)(F)C1=O)C2(C)C` (configuration not stated), for which the GI50 in the experiment on SF-295, in the experiment on TK-10, with CAKI-1, in the experiment on MOLT-4, in the experiment with HCC 2998 and in the experiment with U-251 was > 100 µM (inactive) throughout. Besides, the GI50 in the experiment with UACC-62, in the experiment on A549, in the experiment with NCI/ADR-RES, with NCI-H522, in the experiment on OVCAR-8 and with OVCAR-4 was > 100 µM (inactive) in each case. Further, the GI50 was > 100 µM (inactive) in the experiment on NCI-H226; > 100 µM (inactive) with SR; > 100 µM (inactive) in the experiment on NCI-H23; more than 100 µM with HCT-15; > 100 µM (inactive) in the experiment with ACHN; > 100 µM (inactive) with Hs-578T. Further, the GI50 in the experiment on MDA-N is > 100 µM (inactive).
`O=C(N/N=C\c1cccc2ccccc12)Nc1cccc2ccccc12`: the GI50 is 19.9 µM (inactive) in the experiment on TK-10; 84.7 µM (inactive) in the experiment on EKVX; 25.7 µM (inactive) with CAKI-1; 4.49 µM (inactive) in the experiment on MOLT-4; 33.7 µM (inactive) with HCC 2998; 11.4 µM (inactive) in the experiment with U-251. Further, the GI50 was 44.1 µM (inactive) in the experiment with A549; > 100 µM (inactive) in the experiment on NCI/ADR-RES; 18.6 µM (inactive) in the experiment on NCI-H522; 32.4 µM (inactive) in the experiment on OVCAR-8; > 10 µM (inactive) in the experiment on OVCAR-4; 49.4 µM (inactive) in the experiment with NCI-H226. Also, the GI50 with SR is 3.29 µM (inactive); in the experiment with NCI-H23 it was 23.7 µM (inactive); with HCT-15 it was 5.73 µM; in the experiment with ACHN, 23.2 µM (inactive); in the experiment on Hs-578T it was 43 µM (inactive); in the experiment on MDA-N it was 3.84 µM (inactive).

The values are drawn from ChEMBL document CHEMBL1201862, “PubChem BioAssay data set” (2004).
